# According to patent US10363239B2, “Method for inhibiting growth of cancer cells” (Pain Therapeutics, Inc., priority 2013, dated 2019):
# Experiments:
# [1] = system: MiaPaCa2 pancreatic cancer cell implants; assay: Xenograft tumor volume study
# [2] = system: pS2448mTOR, pS473Akt, pY/pT-ERK2 in melanoma cells; assay: Activated (phosphorylated) mTOR, Akt and ERK2 levels (immunoprecipitation, Western blotting); type: cell-based, human; settings: 0.1-5 nM; 4 days
# Method: FIG. 11A through FIG. 11C illustrate the effect of contact with Compound C0105 on the levels of activated (phosphorylated) mTOR (pS^2448mTOR), Akt (pS^473Akt) and ERK2 (pY/pT-ERK2) in melanoma cells. Cells were treated with vehicle and 0.1-5 nM Compound C0105 for 4 days. Cells were washed, solubilized and the resultant cell lysate was immunoprecipitated with anti-mTOR, -Akt or -ERK2. The levels of pS^2448mTOR, pS^473Akt, pY/pTERK2 in the respective anti-mTOR, -Akt, and -ERK2 immunoprecipitates were determined by Western blotting. The density of protein bands was measured by densitometric scanning. […] N=4. *p<0.01 compared to vehicle (open bars). […]
# (§1) The cell lysates were diluted 5-fold with immunoprecipitation buffer and immunoprecipitated with anti-FLNA, -Akt, -mTOR and -ERK2 as described previously [Talbot et al., J Clin Inv 122(4):1-23 (2012); Wang et al., J Neurosci 32(29):9773-9784 (2012)]. The levels of FLNA linkages, activated phosphorylated Akt (pS^473 and pT^308), phosphorylated mTOR (pS^2448) and phosphorylated ERK2 (pY/pT) were determined in anti-FLNA, -Akt, -mTOR and -ERK2 immunoprecipitates by Western blotting with appropriate antibodies directed against PTEN, PP2A, K-RAS, ras-GAP (FLNA linkages), pS^473Akt, pT^308Akt, pS^2448mTOR and pY/pT ERK2 (activation of Akt, mTOR and ERK2).
# [3] = system: primary human mammary epithelial cells (HMECs); assay: Cell proliferation by cell-cycling markers Ki67 and PCNA (Western blots); type: cell-based; settings: 0.1-5 nM; 4 days
# Method: The effect of contact with Compound C0105 on cell proliferation was determined by the levels of cell-cycling markers: Ki67 and PCNA using Western blots in HTB-22 and control human mammary epithelial cells (HMECs). Cells treated with vehicle and 0.1-5 nM Compound C0105 for 4 days were collected, washed and solubilized. The resultant cell lysates were size-fractionated on SDS-PAGE and Western blotting to determine the levels of Ki67, PCNA and actin (loading control). The protein bands were quantified using densitometric scanning.
# The effect of C0105 on cell proliferation was determined by the levels of cell-cycling markers Ki67 and PCNA using Western blots in HTB-22 and control HMECs. Cells contacted with vehicle and 0.1-5 nM Compound C0105 for 4 days were collected, washed and solubilized. […] The protein bands were quantified using densitometric scanning. […]
# To study the effect of Compound C0105 on PI3K activity, the cancer and primary normal cells were cultured to approximately 60-70% confluency, serum deprived for 4 hours, briefly washed with PBS and treated with vehicle or 0.1, 0.5, 1 or 5 nM Compound C0105 for 24 hours with in 0.1% FBS-containing culture medium. […] The cell pellets were sonicated in ice-cold immunoprecipitation buffer and protein concentrations measured by the Bradford method. […]
# glioblastoma cells = assay: [3H]thymidine incorporation; type: cell-based, human; settings: 0.1-5 nM; 96 hours
# Method: The effect of Compound C0105 on cell proliferation was determined by the level of [^3H]thymidine incorporation in glioblastoma, melanoma and small-cell lung carcinoma cells. Cells contacted with vehicle or 0.1-5 nM Compound C0105 were incubated with 5 μCi/ml of [^3H]thymidine for 96-hours. Cells were washed and the cell content of [^3H]thymidine was quantified using scintillation spectrometry. […] N=4. **p<0.05, *p<0.01 compared to vehicle (open bars).
# [4] = system: pS2152FLNA, FLNA-associated PTEN and PP2A in pancreatic cancer MiaPaCa2 cells; assay: pS2152FLNA and FLNA-associated PTEN and PP2A in anti-FLNA immunoprecipitate (Western blotting); type: cell-based, human; settings: 0.1-5 nM; 4 days
# Method: The effect of contact with Compound C0105 on the levels of pS^2152FLNA and FLNA-associated phosphatases, PTEN and PP2A subclasses was determined in MiaPaCa2 and HPECs. Cells were contacted with vehicle and 0.1-5 nM Compound C0105 for 4 days. Cells were washed, solubilized and the cell lysate derived was immunoprecipitated with anti-FLNA. The levels of […] and FLNA-associated phosphatases, PTEN and PP2A subclasses in the anti-FLNA immunoprecipitate were determined by Western blotting. The density of protein bands was quantified by densitometric scan. […] Data are expressed as mean±S.E.M. of ratios (FIGS. 27C, 27E and 27G) and percentage inhibition (FIGS. 27D, 27F and 27H). […] N=4. **p<0.05, *p<0.01 compared to vehicle (open bars). […]
# as §1
smiles,measurement,setting,value
CN1CCC2(CC1)NCC(=O)N2Cc1ccccc1 [Compound C0105],Tumor volume,[1]; 1 mg/kg twice daily orally for 20 days,arrested growth
same,Tumor volume,[1]; 10 mg/kg twice daily orally for 20 days,shrank tumors
same,Vasculature of tumor masses,[1]; 1 or 10 mg/kg twice daily orally,visibly reduced the vasculature of tumor masses
same,"mTOR, Akt and ERK activation (phosphorylated mTOR, Akt and ERK)",[2],"robustly reduces mTOR, Akt and ERK activation"
same,Cell proliferation (Ki67 and PCNA levels),[3],had no effect
same,Cell proliferation by [3H]thymidine incorporation,glioblastoma cells,"reduces glioblastoma, melanoma and small-cell lung carcinoma cell proliferation"
same,FLNA-associated PTEN and PP2A levels,[4],increases FLNA-associated PTEN and PP2A levels
same,pS2152FLNA level,[4],reduces pS^2152FLNA
